Data published in patent publication US12180139B2, “Method for preparing aminoalkanoic acid derivative containing biphenyl group” (AMTIXBIO CO., LTD., priority 2019, dated 2024).

Tests used:
B. cereus (+) = test: Antibacterial MIC test (CLSI); format: cell-based; settings: MHB liquid medium, 37° C., 24 hours
Method: (§1) The MIC test was conducted in accordance CLSI guidelines. […] As a positive control, Nofloxacin and Vancomycin were used.

B. coagulans (+) = test: Antibacterial MIC test (CLSI); format: cell-based; settings: MHB liquid medium, 37° C., 24 hours
Method: as §1

B. subtilis (+) = test: Antibacterial MIC test (CLSI); format: cell-based; settings: MHB liquid medium, 37° C., 24 hours
Method: as §1

E. coli (−) = test: Antibacterial MIC test (CLSI); format: cell-based; settings: MHB liquid medium, 37° C., 24 hours
Method: as §1

L. monocytogenes (+) = test: Antibacterial MIC test (CLSI); format: cell-based; settings: MHB liquid medium, 37° C., 24 hours
Method: as §1

M. luteus (+) = test: Antibacterial MIC test (CLSI); format: cell-based; settings: MHB liquid medium, 37° C., 24 hours
Method: as §1

P. acnes (+) = test: Antibacterial MIC test (CLSI); format: cell-based; settings: MHB liquid medium, 37° C., 24 hours
Method: as §1

S. aureus enterica (−) = test: Antibacterial MIC test (CLSI); format: cell-based; settings: MHB liquid medium, 37° C., 24 hours
Method: as §1

S. aureus (+) = settings: MHB liquid medium, 37° C., 24 hours
Method: (§2) The antibacterial activities against Gram-positive bacteria, Gram-negative bacteria or multi-drug resistant bacteria were evaluated for the compounds of the present invention. The MIC test was conducted in accordance CLSI guidelines. E. coli(−), P. aeruginosa(−), and S. enterica(−) were used as Gram-negative bacteria, B. cereus(+), B. subtilis(+), B. coagulans(+), L. monocytogenes(+), M. luteus(+), P. acnes(+), S. epidermidis(+), and S. aureus(+) were used as Gram-positive bacteria. Methicillin-resistant Staphylococcus aureus (MRSA) was used as multi-drug resistant bacteria. The bacterial cells were incubated until the OD600 of the single colonies reached 0.1. […] Subsequently, bacterial cells were incubated at 37° C. for 24 hours, and then the MICs (μg/ ? ) were determined by visual reading and optical density detection at 600 nm (OD600). As a positive control, Nofloxacin and Vancomycin were used.

S. epidermidis (+) = settings: MHB liquid medium, 37° C., 24 hours
Method: as §2

MRSA = test: Antibacterial MIC test (CLSI); format: cell-based, Methicillin-resistant Staphylococcus aureus; settings: MHB liquid medium, 37° C., 24 hours
Method: as §1

C. neoformans = settings: RPMI1640 broth, 35° C., 72 hours, visual reading; expressed as a range value
C. albicans = settings: RPMI1640 broth, 35° C., 48 hours, visual reading; expressed as a range value
Method: (§3) An in vitro antifungal susceptibility test was performed in accordance with the US Clinical and Laboratory Standards Institute (CLSI) guidelines to measure the degree of antifungal activity of the compounds synthesized in the Preparation Examples against opportunistic pathogenic fungi. […] The MIC value (μg/ ? ) is expressed as a range value. Specifically, Candida species and Cryptococcus neoformans were incubated in a Sabouraud dextrose agar (SDA) (Sigma-Aldrich) solid medium for 24 and 48 hours, respectively to obtain single colonies. The obtained single colonies were suspended in 0.85% physiological saline to prepare fungal cell suspension (1 to 5×10^6 cells/ ? ). Fungal cells 2000-fold diluted in RPMI1640 broth (Sigma-Aldrich) were seeded on 96-well plates (5×10^2 to 2.5×10^3 cells/ ? , 195 ? /well). Serial two-fold dilutions (128, 64, 32, 16, 8, 4, 2, 1, and 0.5 μg/ ? ) of compounds were prepared by diluting the compounds synthesized according to the above preparation examples. Then, 5 ? from each dilution was added to the well of the 96-well plate containing fungal cell suspension to give a final suspension of 200 ? per well. […] As a positive control, amphotericin B (AMB), which is highly toxic to the human body but is known as a representative antifungal agent, was used.

C. glabrata = settings: RPMI1640 broth, 35° C., 48 hours, visual reading; expressed as a range value
Method: as §3

A. fumigatus = settings: visual reading; expressed as a range value
Method: as §3

## CCCCC(NC)C(=O)NCCc1ccc(-c2ccc(Cl)c(Cl)c2)cc1.Cl (racemic) [Compound 85, (R)/(S)-N-(2-(3′,4′-dichloro-[1,1′-biphenyl]-4-yl)ethyl)-2-(methylamino)hexanamide hydrochloride]
B. cereus (+)
  MIC B. cereus (+): 32 µg/mL
B. coagulans (+)
  MIC B. coagulans (+): 4 µg/mL
B. subtilis (+)
  MIC B. subtilis (+): 16 µg/mL
E. coli (−)
  MIC E. coli (−): >32 µg/mL
L. monocytogenes (+)
  MIC L. monocytogenes (+): 16 µg/mL
M. luteus (+)
  MIC M. luteus (+): 8 µg/mL
P. acnes (+)
  MIC P. acnes (+): 16 µg/mL
S. aureus enterica (−)
  MIC S. aureus enterica (−): >32 µg/mL
S. aureus (+)
  MIC S. aureus (+): 16 µg/mL
S. epidermidis (+)
  MIC S. epidermidis (+): 16 µg/mL
MRSA
  MIC MRSA: 16 µg/mL
C. neoformans
  MIC (μg/mL) C. neoformans: 0.5~4 μg/mL
C. albicans
  MIC (μg/mL) C. albicans: 0.5~4 μg/mL
C. glabrata
  MIC (μg/mL) C. glabrata: 0.5~4 μg/mL
A. fumigatus
  MIC (μg/mL) A. fumigatus: 0.5~4 μg/mL

## CCC(NC)C(=O)Nc1ccc(-c2ccc(Cl)c(Cl)c2)cc1.Cl (racemic) [Compound 33, (R)/(S)-N-(3′,4′-dichloro-[1,1′-biphenyl]-4-yl)-2-(methylamino)butanamide hydrochloride]
B. cereus (+)
  MIC B. cereus (+): 16 µg/mL
B. coagulans (+)
  MIC B. coagulans (+): <4 µg/mL
B. subtilis (+)
  MIC B. subtilis (+): 8 µg/mL
E. coli (−)
  MIC E. coli (−): 8 µg/mL
L. monocytogenes (+)
  MIC L. monocytogenes (+): <4 µg/mL
M. luteus (+)
  MIC M. luteus (+): <4 µg/mL
P. acnes (+)
  MIC P. acnes (+): <4 µg/mL
S. aureus enterica (−)
  MIC S. aureus enterica (−): 16 µg/mL
S. aureus (+)
  MIC S. aureus (+): 8 µg/mL
S. epidermidis (+)
  MIC S. epidermidis (+): <4 µg/mL
MRSA
  MIC MRSA: <4 µg/mL
C. neoformans
  MIC (μg/mL) C. neoformans: 4~16 μg/mL
C. albicans
  MIC (μg/mL) C. albicans: 8~32 μg/mL
C. glabrata
  MIC (μg/mL) C. glabrata: 8~32 μg/mL
A. fumigatus
  MIC (μg/mL) A. fumigatus: 8~32 μg/mL

## CCC(NC)C(=O)NCCc1ccc(-c2ccc(OC(F)(F)F)cc2)cc1.Cl (racemic) [Compound 89, (R)/(S)-2-(methylamino)-N-(2-(4′-(trifluoromethoxy)-[1,1′-biphenyl]-4-yl)ethyl)butanamide hydrochloride]
B. cereus (+)
  MIC B. cereus (+): >64 µg/mL
B. coagulans (+)
  MIC B. coagulans (+): <4 µg/mL
B. subtilis (+)
  MIC B. subtilis (+): 16 µg/mL
E. coli (−)
  MIC E. coli (−): 16 µg/mL
L. monocytogenes (+)
  MIC L. monocytogenes (+): 16 µg/mL
M. luteus (+)
  MIC M. luteus (+): 16 µg/mL
P. acnes (+)
  MIC P. acnes (+): 16 µg/mL
S. aureus enterica (−)
  MIC S. aureus enterica (−): 32 µg/mL
S. aureus (+)
  MIC S. aureus (+): 32 µg/mL
S. epidermidis (+)
  MIC S. epidermidis (+): 16 µg/mL
MRSA
  MIC MRSA: 32 µg/mL
C. neoformans
  MIC (μg/mL) C. neoformans: 8~32 μg/mL
C. albicans
  MIC (μg/mL) C. albicans: 8~32 μg/mL
C. glabrata
  MIC (μg/mL) C. glabrata: 8~32 μg/mL
A. fumigatus
  MIC (μg/mL) A. fumigatus: 8~32 μg/mL

## CCC(N)C(=O)NCCc1ccc(-c2ccc(Cl)c(Cl)c2)cc1.Cl (racemic) [Compound 73, (R)/(S)-2-amino-N-(2-(3′,4′-dichloro-[1,1′-biphenyl]-4-yl)ethyl)butanamide hydrochloride]
B. cereus (+)
  MIC B. cereus (+): 32 µg/mL
B. coagulans (+)
  MIC B. coagulans (+): <4 µg/mL
B. subtilis (+)
  MIC B. subtilis (+): 8 µg/mL
E. coli (−)
  MIC E. coli (−): 8 µg/mL
L. monocytogenes (+)
  MIC L. monocytogenes (+): 8 µg/mL
M. luteus (+)
  MIC M. luteus (+): 8 µg/mL
P. acnes (+)
  MIC P. acnes (+): 8 µg/mL
S. aureus enterica (−)
  MIC S. aureus enterica (−): 16 µg/mL
S. aureus (+)
  MIC S. aureus (+): 8 µg/mL
S. epidermidis (+)
  MIC S. epidermidis (+): 8 µg/mL
MRSA
  MIC MRSA: 8 µg/mL
C. neoformans
  MIC (μg/mL) C. neoformans: 2~8 μg/mL
C. albicans
  MIC (μg/mL) C. albicans: 8~32 μg/mL
C. glabrata
  MIC (μg/mL) C. glabrata: 8~32 μg/mL
A. fumigatus
  MIC (μg/mL) A. fumigatus: 8~32 μg/mL

## CCC(NC)C(=O)NCCc1ccc(-c2ccc(C(F)(F)F)cc2)cc1.Cl (racemic) [Compound 86, (R)/(S)-2-(methylamino)-N-(2-(4′-(trifluoromethyl)-[1,1′-biphenyl]-4-yl)ethyl)butanamide hydrochloride]
B. cereus (+)
  MIC B. cereus (+): 64 µg/mL
B. coagulans (+)
  MIC B. coagulans (+): <4 µg/mL
B. subtilis (+)
  MIC B. subtilis (+): 32 µg/mL
E. coli (−)
  MIC E. coli (−): 32 µg/mL
L. monocytogenes (+)
  MIC L. monocytogenes (+): 16 µg/mL
M. luteus (+)
  MIC M. luteus (+): 16 µg/mL
P. acnes (+)
  MIC P. acnes (+): 16 µg/mL
S. aureus enterica (−)
  MIC S. aureus enterica (−): 64 µg/mL
S. aureus (+)
  MIC S. aureus (+): 32 µg/mL
S. epidermidis (+)
  MIC S. epidermidis (+): 16 µg/mL
MRSA
  MIC MRSA: 32 µg/mL
C. neoformans
  MIC (μg/mL) C. neoformans: 8~32 μg/mL
C. albicans
  MIC (μg/mL) C. albicans: 16~64 μg/mL
C. glabrata
  MIC (μg/mL) C. glabrata: 16~64 μg/mL
A. fumigatus
  MIC (μg/mL) A. fumigatus: 16~64 μg/mL
